Read-outs that look alike come from different tables or passages of the source.
Columns and labels:
[1] = target: T1, USP28 (Homo sapiens, UniProt Q96RU2); assay: USP28 activity measured using ubiquitin-rhodamine 110 method; type: biochemical; conditions: for IC50: purified USP28 4 nM, ubiquitin-rhodamine 110 125 nM, 30 min preincubation; for IC50(F)/IC50(E) USP28: ratio of IC50 of related 3-NH2 compound (F) to IC50 of 3-NHMe compound disclosed herein (E)
T1 construct: purchased R&D Systems
T1 sequence (Q96RU2 1-1077): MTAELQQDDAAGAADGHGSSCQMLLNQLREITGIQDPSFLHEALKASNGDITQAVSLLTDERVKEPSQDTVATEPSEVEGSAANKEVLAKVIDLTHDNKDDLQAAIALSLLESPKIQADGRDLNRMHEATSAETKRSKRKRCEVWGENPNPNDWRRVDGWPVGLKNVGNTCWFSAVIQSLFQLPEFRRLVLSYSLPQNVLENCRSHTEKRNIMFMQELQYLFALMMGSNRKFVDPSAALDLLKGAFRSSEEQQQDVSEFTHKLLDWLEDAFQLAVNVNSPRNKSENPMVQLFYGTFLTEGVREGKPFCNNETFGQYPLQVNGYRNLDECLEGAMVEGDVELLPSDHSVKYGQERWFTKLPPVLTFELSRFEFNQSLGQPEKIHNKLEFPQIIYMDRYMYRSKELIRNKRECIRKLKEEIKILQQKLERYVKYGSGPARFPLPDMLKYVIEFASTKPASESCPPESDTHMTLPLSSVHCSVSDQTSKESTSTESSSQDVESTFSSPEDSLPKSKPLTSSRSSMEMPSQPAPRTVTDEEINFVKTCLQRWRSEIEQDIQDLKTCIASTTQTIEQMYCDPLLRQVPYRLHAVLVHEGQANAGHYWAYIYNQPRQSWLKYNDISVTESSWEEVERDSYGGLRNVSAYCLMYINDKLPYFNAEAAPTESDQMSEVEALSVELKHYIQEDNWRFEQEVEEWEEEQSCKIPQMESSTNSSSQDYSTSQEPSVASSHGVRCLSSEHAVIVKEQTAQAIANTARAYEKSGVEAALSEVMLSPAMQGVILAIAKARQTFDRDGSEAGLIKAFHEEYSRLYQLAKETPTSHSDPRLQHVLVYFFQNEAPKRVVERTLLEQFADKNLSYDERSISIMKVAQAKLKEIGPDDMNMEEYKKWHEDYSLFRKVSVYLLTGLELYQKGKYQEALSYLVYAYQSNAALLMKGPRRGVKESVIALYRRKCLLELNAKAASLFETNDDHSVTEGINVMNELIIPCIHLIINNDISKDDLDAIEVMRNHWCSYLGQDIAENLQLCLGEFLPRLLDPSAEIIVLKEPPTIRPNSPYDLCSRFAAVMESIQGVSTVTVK
In short: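 Purified USP28 (4 nM final) preincubated with compounds 30 min at room temperature in Tris-HCl pH 8.0 buffer with CaCl2, BME, Prionix and Triton X-100 (DMSO ≤0.5%). Ubiquitin-rhodamine 110 added to 125 nM; fluorescence (ex 485/em 535 nm) read immediately, inhibition versus DMSO control used to calculate IC50.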

[2] = target: T2, USP25 (Homo sapiens, UniProt Q9UHP3); assay: USP25 activity measured using ubiquitin-rhodamine 110 method; type: biochemical; conditions: for IC50: purified USP25 15 nM, ubiquitin-rhodamine 110 125 nM, 30 min preincubation; for IC50(F)/IC50(E) USP25: ratio of IC50 of related 3-NH2 compound (F) to IC50 of 3-NHMe compound disclosed herein (E)
T2 construct: purchased R&D Systems
T2 sequence (Q9UHP3 1-1055): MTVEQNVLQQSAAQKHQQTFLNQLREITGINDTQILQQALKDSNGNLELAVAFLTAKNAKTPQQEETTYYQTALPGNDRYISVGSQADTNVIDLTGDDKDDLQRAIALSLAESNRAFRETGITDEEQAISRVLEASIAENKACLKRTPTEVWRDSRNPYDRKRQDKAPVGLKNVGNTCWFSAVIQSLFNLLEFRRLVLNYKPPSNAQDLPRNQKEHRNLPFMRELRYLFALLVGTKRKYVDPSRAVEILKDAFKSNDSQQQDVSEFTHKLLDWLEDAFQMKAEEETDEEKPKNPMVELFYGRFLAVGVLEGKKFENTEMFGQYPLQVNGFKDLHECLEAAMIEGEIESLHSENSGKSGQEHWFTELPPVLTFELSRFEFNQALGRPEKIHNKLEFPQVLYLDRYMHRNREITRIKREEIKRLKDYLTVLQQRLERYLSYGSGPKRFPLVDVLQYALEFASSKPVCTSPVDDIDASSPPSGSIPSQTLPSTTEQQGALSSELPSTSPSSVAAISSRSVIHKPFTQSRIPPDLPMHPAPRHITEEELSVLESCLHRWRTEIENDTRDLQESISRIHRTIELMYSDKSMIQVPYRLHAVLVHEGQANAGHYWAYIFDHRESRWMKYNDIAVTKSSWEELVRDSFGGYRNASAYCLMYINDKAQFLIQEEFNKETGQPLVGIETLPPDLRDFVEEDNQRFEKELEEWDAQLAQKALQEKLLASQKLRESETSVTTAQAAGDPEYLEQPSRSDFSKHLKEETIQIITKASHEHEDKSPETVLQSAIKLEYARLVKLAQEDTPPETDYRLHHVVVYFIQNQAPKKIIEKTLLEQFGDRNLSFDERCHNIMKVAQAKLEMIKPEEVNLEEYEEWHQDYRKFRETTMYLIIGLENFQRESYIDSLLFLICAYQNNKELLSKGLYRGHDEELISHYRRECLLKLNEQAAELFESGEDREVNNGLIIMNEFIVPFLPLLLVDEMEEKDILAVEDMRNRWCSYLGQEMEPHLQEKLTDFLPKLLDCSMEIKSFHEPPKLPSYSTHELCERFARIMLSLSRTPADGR
In short: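 Compound preincubated 30 min at room temperature with USP25 (15 nM final) in 20 mM Tris-HCl pH 8.0, 2 mM CaCl2, 3 mM BME, 0.01% Prionix, 0.01% Triton X-100, ≤0.5% DMSO. Ubiquitin-rhodamine 110 (125 nM) then added; fluorescence (ex 485/em 535 nm) read immediately. IC50 from % inhibition across concentrations.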

[3] = read-out: Inhibitory activity against USP28 (IC50)
[4] = read-out: Inhibitory activity against USP25 (IC50)
[5] = Inhibitory activity against USP28 (IC50)
[6] = Inhibitory activity against USP25 (IC50)

SMILES | IC50 [1, 3] | IC50 [2, 4] | IC50 [1, 5] | IC50(F)/IC50(E) USP28 [1] | IC50 [2, 6] | IC50(F)/IC50(E) USP25 [2]
CNc1c(C(=O)NCCc2ccc(N3C[C@H]4CC[C@@H](C3)N4)cc2)sc2nc(Cl)ccc12 [Compound I-82] | 100 to 1000 nM | 100 to 1000 nM |  |  |  | 
CNc1c(C(=O)N[C@@H]2Cc3ccc(N4CC5CCC(C4)N5)cc3C2)sc2nc(C)ccc12 [Compound I-83] | 100 to 1000 nM | 5000 to 10000 nM |  |  |  | 
CNc1c(C(=O)N[C@H]2Cc3ccc(N4CC5CCC(C4)N5)cc3C2)sc2nc(C)ccc12 [Compound I-84] | 1000 to 5000 nM | > 10000 nM |  |  |  | 
CNc1c(C(=O)N[C@H]2COc3cc(N4CC5CCC(C4)N5)ccc3C2)sc2nc(C)ccc12 [Compound I-85] |  |  | < 100 nM | 8.8 | < 100 nM | >8
CNc1c(C(=O)NC2COc3cc(N4CC5CCC(C4)N5)ccc3C2)sc2nc(C)ccc12 (stereo not shown) [Compound I-86] | 100 to 1000 nM | 1000 to 5000 nM |  |  |  | 
CNc1c(C(=O)NC2CCc3cc(N4CC5CCC(C4)N5)ccc3C2)sc2nc(C)ccc12 (stereo not shown) [Compound I-89] | 1000 to 5000 nM | 5000 to 10000 nM |  |  |  | 
CNc1c(C(=O)N[C@H]2CCc3cc(N4CC5CCC(C4)N5)ccc3C2)sc2nc(C)ccc12 [Compound I-90] |  | 100 to 1000 nM | < 100 nM | 5.5 |  | >6
CCc1ccc2c(NC)c(C(=O)N[C@H]3COc4cc(N5CC6CCC(C5)N6)ccc4C3)sc2n1 [Compound I-91] |  |  | < 100 nM |  | < 100 nM | 
CNc1c(C(=O)NCC(C)(C)c2ccc(N3CC4CCC(C3)N4)cc2F)sc2nc(C)ccc12 [Compound I-92] | 1000 to 5000 nM | > 10000 nM |  |  |  | 
CNc1c(C(=O)NCCc2ccc(N3C[C@H]4CC[C@@H](C3)N4)cc2)sc2nc(N)ccc12 [Compound I-93, N-4-(3,8-diazabicyclo[3.2.1]octan-3-yl)phenethyl-6-amino-3-methylaminothiophene[2,3-b]pyridine-2-carboxamide] | 100 to 1000 nM | 100 to 1000 nM |  |  |  | 
CNc1ccc2c(NC)c(C(=O)NCCc3ccc(N4C[C@H]5CC[C@@H](C4)N5)cc3)sc2n1 [Compound I-94] | 100 to 1000 nM | > 10000 nM |  |  |  | 
CNc1c(C(=O)NCCc2ccc(N3C[C@H]4CC[C@@H](C3)N4)cc2)sc2nc(N)cc(C(F)F)c12 [Compound I-95] |  |  | < 100 nM |  | < 100 nM | 

— patent publication US12486284B2, “Ubiquitin-specific protease inhibitor and preparation method therefor and use thereof” (CHASER THERAPEUTICS, INC., priority 2019, dated 2025)
